From patent US11220498B2, “Neuroprotective aminothiazoles” (priority 2018, dated 2022)

Columns and labels:
[1] = tested on: SUMOylation of His-RanGap; assay: HTRF assay measuring increase in SUMOylation of His-RanGap; format: biochemical; details: His-RanGap substrate, SUMO-E1 (SAE), SUMO-E2 (UBC9), GST-SUMO; HTRF ratio 665/620; 30 min at room temperature; triplicate
Procedure: Assay measuring increase in SUMOylation of His-RanGap. We utilized an HTRF assay containing SUMO-E1 (SAE), SUMO-E2 (UBC9), GST-SUMO and His-RanGap, a known SUMO substrate, as well as the respective fluorescent antibodies. The assay was run in 1536-well plate format and the selected activators were chosen based on their ability to increase the FRET signal over a baseline level. In 1536-well white plates, 2 μl of phosphate buffered saline (assay buffer) was dispensed into columns 1 and 2, and 2 μl of Mixture 1 (37.5 nM E1 and 100 nM His-RanGap-1) in assay buffer (50 mM Tris-HCl pH 7.4, 0.3 mM DTT, 10 mM MgCl2, 0.005% Tween-20), was dispensed into columns 3-48. Using a pintool, 70 nl of 2 mM compounds in DMSO was dispensed to columns 5-48 and 70 nl of DMSO was dispensed to columns 1-4. Using the Thermo Scientific MultiDrop Combi, 2 μL of Mixture 2 (20 mM ATP, 12.5 nM E2 and 30 nM GST-SUMO in buffer) was dispensed to all wells and incubated for 30 min. at room temperature followed by 1 μl of 500 mM KF. Plates were read on a PheraStar in a HTRF mode (Ex: 337 nm; Em: 620/665 nm). The ratio of fluorescence 665 over 620 was utilized as a readout of the assay. Increase in SUMOylation was calculated by comparison to baseline level. Measurements were done in triplicate.

BGMK cells = assay: cells; format: cell-based; details: read-out: % BGMK Cell Viability after treatment with 15 μM TG in Presence of 10 μM compound
Source text: Ability of compounds to rescue BGMK cells from thapsigargin-induced cell death. To assess an orthogonal cell line and further validate the ability of SUMOylation activators to rescue varied cell types, the compounds were also profiled for cytoprotection in BGMK cells. Again, we used the known ER stress-causing agent thapsigargin (TG) to model the compromised state in vitro. BGMKs were subcultured at 1.2×10^4 cells/ml. Wells treated with compound were done so for 2 hr. […] After treatment, all cells were washed and fed fresh DMEM complete media and CCK-8 development vehicle, incubated for 2 hr, and absorbance was measured to assess viability. Controls were DMSO (0% viability) and Salubrinal (47% viability).

CSM14.1 cells = assay: Rescue of CSM14.1 neurons from thapsigargin-induced cell death (ATPlite cell viability); format: cell-based; details: Rattus norvegicus, Neuron, 10 μM compound, 2 h preincubation, 15 μM TG for 20 h, read-out: % CSM14.1 Cell Viability after treatment with 15 μM TG in Presence of 10 μM compound
Source text: Ability of compounds to rescue CSM14.1 neurons from thapsigargin-induced cell death. To assess the ability of the compounds to rescue neurons from ER stress-induced cell death, the rat striatel neuroprogenitor cell line CSM14.1 was used. Endoplasmic reticulum (ER) stress has been established as the major cause of neuronal loss in stroke, ischemia, and neurodegeneration (Tajiri, S.; Oyadomari, S.; Yano, S.; Morioka, M.; Gotoh, T.; Hamada, J. I.; Ushio, Y.; Mori, M. Cell Death Differ. 2004, 11, 403-415; Kohno, K.; Higuchi, T.; Ohta, S.; Kumon, Y.; Sakaki, S. Neurosci. Lett. 1997, 224, 17-20; ladecola, C.; Zhang, F.; Casey, R.; Nagayama, M.; Ross, M. E. J. Neurosci. 1997, 17, 9157-9164). Thus, we used the known ER stress-causing agent thapsigargin (TG) to model the compromised state in vitro. TG causes 100% cell death in most cases, and compounds were assessed for neuroprotection by measuring cell viability when dosed at 10 μM. CSM14.1 cells were recovered from cultures by trypsinization and plated in 96-well plates and incubated overnight at 32° C. 5 μl of test compound was added to achieve a final concentration of […]. Salubrinal and DMSO without compound were used as positive and negative controls, respectively. After 2 h of preincubation, TG-containing DMEM was added to give a final concentration of 15 μM and incubated for an additional 20 h. Cell viability was assessed by a cellular ATP content assay (ATPlite, PerkinElmer Life Sciences).

CC(=O)Nc1ccc(C(=O)Nc2nc(-c3cccnc3)cs2)cc1 [Compound C2, 4-(Acetylamino)-N-[4-(3-pyridinyl)-2-thiazolyl]-benzamide]
% INCREASE IN SUMOylation over endogenous baseline level [1]: A (A = 10%-20% increase)

O=C(Nc1nc(-c2ccccn2)cs1)c1ccc(Cl)s1 [Compound C5, 5-Chloro-N-(4-(pyridin-2-yl)thiazol-2-yl)thiophene-2-carboxamide]
viability at 10 µM (BGMK cells): 41 to 50% | % INCREASE IN SUMOylation over endogenous baseline level [1]: B (B = 21%-30% increase)

O=C(Nc1nc(-c2ccccn2)cs1)c1ccc(S(=O)(=O)N2CCCCC2)cc1 [Compound C1, 4-(1-Piperidinylsulfonyl)-N-[4-(2-pyridinyl)-2-thiazolyl]-benzamide]
viability at 10 µM (CSM14.1 cells): 40 to 50% | % INCREASE IN SUMOylation over endogenous baseline level [1]: D (D = 40%-60% increase in SUMOylation over baseline levels)

O=C(Nc1nc(-c2ccccn2)cs1)c1ccc2c(c1)OCCO2 [Compound C3, N-(4-(Pyridin-2-yl)thiazol-2-yl)-2,3-dihydrobenzo[b][1,4]dioxine-6-carboxamide]
viability at 10 µM (BGMK cells): 51 to 60% | % INCREASE IN SUMOylation over endogenous baseline level [1]: A (A = 10%-20% increase)

O=C(Nc1nc(-c2ccccn2)cs1)c1ccc(Br)s1 [Compound C6, 5-Bromo-N-(4-(pyridin-2-yl)thiazol-2-yl)thiophene-2-carboxamide]
viability at 10 µM (CSM14.1 cells): 61 to 70% | viability at 10 µM (BGMK cells): 61 to 85% | % INCREASE IN SUMOylation over endogenous baseline level [1]: C (C = 31%-40% increase)

O=C(Nc1nc(-c2ccccn2)cs1)C1COc2ccccc2O1 (stereo not shown) [Compound C4, N-(4-(Pyridin-2-yl)thiazol-2-yl)-2,3-dihydrobenzo[b][1,4]dioxine-2-carboxamide]
viability at 10 µM (CSM14.1 cells): 61 to 70% | viability at 10 µM (BGMK cells): 61 to 85% | % INCREASE IN SUMOylation over endogenous baseline level [1]: D (D = 40%-60% increase in SUMOylation over baseline levels)
